# Assay results as given in PubChem BioAssay (NCI).
#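 Dose response: 5 concentrations. Exposure: 48 h. Format: 96-well plates. Endpoint: linear interpolation; highest concentration if not reached. GI50 marks 50% less growth. TGI: total growth inhibition.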
# Assays:
# Assay in all cases: NCI-60 cell line screen, 48 h
# [1] = system: A498 renal
# [2] = system: KM12 colon
# [3] = system: HOP-92 NSCLC
# [4] = system: U251 CNS
# [5] = system: MDA-MB-231 breast
# [6] = system: CCRF-CEM leukemia
# [7] = system: HCC-2998 colon
# [8] = system: HCT-116 colon
# [9] = system: MDA-MB-435
# [10] = system: TK-10 renal
SMILES,GI50 [1],TGI [1],GI50 [2],TGI [2],GI50 [3],TGI [3],GI50 [4],TGI [4],GI50 [5],TGI [5],GI50 [6],TGI [6],GI50 [7],TGI [7],GI50 [8],TGI [8],GI50 [9],TGI [9],GI50 [10],TGI [10]
CC(C)Nc1ccc(Nc2ccccc2)cc1,9.69 µM,> 100 µM,22.4 µM,> 100 µM,12 µM,30 µM,12.8 µM,32 µM,8.32 µM,35.6 µM,12.5 µM,> 100 µM,25.3 µM,> 100 µM,14.1 µM,31.4 µM,15.4 µM,46 µM,23.1 µM,57.4 µM
COc1cc(-n2cc(-c3ccc(F)cc3)nc2SCc2ccccc2)cc(OC)c1OC,37.4 µM,> 100 µM,> 100 µM,> 100 µM,1.48 µM,37 µM,> 100 µM,> 100 µM,> 100 µM,> 100 µM,17.7 µM,43.8 µM,> 100 µM,> 100 µM,18.8 µM,> 100 µM,> 100 µM,> 100 µM,> 100 µM,> 100 µM
COc1cc2cc(C(=O)CCC(=O)O)sc2cc1OC,18.7 µM,45.4 µM,> 100 µM,> 100 µM,37.3 µM,> 100 µM,> 100 µM,> 100 µM,> 100 µM,> 100 µM,> 100 µM,> 100 µM,> 100 µM,> 100 µM,> 100 µM,> 100 µM,> 100 µM,> 100 µM,> 100 µM,> 100 µM
O=c1cc(-c2ccccc2)oc2cc(O)c(O)c(O)c12,6.94 µM,> 100 µM,18.2 µM,62.5 µM,3.58 µM,48.7 µM,11.1 µM,> 100 µM,14.1 µM,36.8 µM,2.39 µM,> 100 µM,15 µM,37.9 µM,11.1 µM,31.8 µM,10.2 µM,39.8 µM,28 µM,81.2 µM
CC(C)(O)C#Cc1ccc(/C=C/C(=O)c2ccccc2)s1,17.7 µM,32.2 µM,4.37 µM,14.4 µM,13.6 µM,27.1 µM,13.6 µM,26.5 µM,16.7 µM,32.3 µM,13.6 µM,64.9 µM,16.6 µM,30.7 µM,4.08 µM,15.4 µM,12.6 µM,26.4 µM,19.4 µM,35.8 µM
Oc1ccc(CN2CCC(N3CCOCC3)CC2)c2cccnc12,> 100 µM,> 100 µM,46.9 µM,> 100 µM,65.9 µM,> 100 µM,24.4 µM,> 100 µM,47.9 µM,> 100 µM,23.8 µM,> 100 µM,51.7 µM,> 100 µM,34.4 µM,> 100 µM,36.2 µM,> 100 µM,62.4 µM,> 100 µM
O=c1ccc(N=Nc2ccc([N+](=O)[O-])cc2)ccc1O,> 100 µM,> 100 µM,5.54 µM,> 100 µM,4.9 µM,> 100 µM,4.46 µM,> 100 µM,9.64 µM,71.2 µM,3.68 µM,> 100 µM,6.08 µM,> 100 µM,4.19 µM,> 100 µM,9.14 µM,> 100 µM,20 µM,> 100 µM
N#Cc1cccc(OCc2nc(N)nc(N)c2-c2ccc(Cl)c(Cl)c2)c1,2.9 µM,> 100 µM,2.96 µM,82.4 µM,1.82 µM,9.06 µM,0.749 µM,> 100 µM,6.13 µM,> 100 µM,2.03 µM,> 100 µM,4.11 µM,> 100 µM,0.472 µM,> 100 µM,0.486 µM,> 100 µM,9.32 µM,> 100 µM
Fc1ccc(-c2nn3c(-c4ccc(F)c(Cl)c4)nnc3s2)cc1,> 50 µM,> 50 µM,> 50 µM,> 50 µM,15.6 µM,> 50 µM,18.5 µM,> 50 µM,30.5 µM,> 50 µM,5.52 µM,17.8 µM,> 50 µM,> 50 µM,21.6 µM,> 50 µM,> 50 µM,> 50 µM,14.2 µM,> 50 µM
O=c1c2c3c(sc2n2c(-c4cc(-c5ccccc5)no4)nnc2n1Cc1ccccc1)CCCC3,36.5 µM,> 100 µM,15.8 µM,55.2 µM,6.66 µM,> 100 µM,17.3 µM,> 100 µM,4.94 µM,55.2 µM,3.22 µM,> 37.7 µM,20.7 µM,> 76.6 µM,10.3 µM,24.5 µM,24.1 µM,> 91.9 µM,21.5 µM,> 82.8 µM
